Source: ChEMBL document CHEMBL5344403, “Discovery and evaluation of phenacrylanilide derivatives as novel potential anti-liver fibrosis agents” (Eur J Med Chem, 2022)
Calls of active or inactive are those of the source. The calls are words filed in the database; no cut-off is given here.

What was measured:
[1] = system: LX-2; test: Inhibition of TGF-beta1-induced human LX2 activation at 20 uM pretreated with TGF-beta1 for 1 hr followed by compound addition and measured after 72 hrs by CCK-8 assay relative to control; assay type: functional
[2] = Antiproliferative activity against human LX2 cells assessed as cell survival rate at 20 uM incubated for 72 hrs by CCK-8 assay; assay type: toxicity, cell-based; settings: LX-2 cells, read-out: Activity
[3] = system: LX-2; test: Antifibrotic activity against TGF-beta1 induced human LX2 cells assessed as reduction of alpha-SMA expression at 20 uM pretreated with TGF-beta1 for 1 hr followed by compound addition and measured after 24 hrs by Western blot analysis; assay type: functional, cell-based
[4] = system: LX-2; test: Antifibrotic activity against TGF-beta1 induced human LX2 cells assessed as reduction of fibronectin expression at 20 uM pretreated with TGF-beta1 for 1 hr followed by compound addition and measured after 24 hrs by Western blot analysis; assay type: functional, cell-based
[5] = Antiproliferative activity against human LO2 cells assessed as inhibition of cell growth incubated for 72 hrs by CCK-8 assay; assay type: toxicity, cell-based; settings: LO2 (L02) cells
[6] = system: Mus musculus; test: Antifibrotic activity against CCL4-induced C57BL/6J mouse hepatic fibrosis model assessed as reduction in F4/80+CD11b+ in macrophage at 30 mg/kg, po measured for 3 weeks by flow cytometry analysis relative to control; assay type: functional; design: scale not given: the % may be the effect or the level left
[7] = system: Mus musculus; test: Antifibrotic activity against CCL4-induced C57BL/6J mouse hepatic fibrosis model assessed as reduction in CD69/CD4 in Th1 cell cells at 30 mg/kg, po measured for 3 weeks by flow cytometry analysis relative to control; assay type: functional; design: scale not given: the % may be the effect or the level left
[8] = system: Mus musculus; test: Antifibrotic activity against CCL4-induced C57BL/6J mouse hepatic fibrosis model assessed as reduction in CD69/CD8 in […] cell cells at 30 mg/kg, po measured for 3 weeks by flow cytometry analysis relative to control; assay type: functional; design: scale not given: the % may be the effect or the level left
[9] = system: Mus musculus; test: Antifibrotic activity against CCL4-induced C57BL/6J mouse hepatic fibrosis model assessed as reduction in CD11b/Gr-1 in MDSC cells at 30 mg/kg, po measured for 3 weeks by flow cytometry analysis relative to control; assay type: functional; design: scale not given: the % may be the effect or the level left
[10] = Toxicity in CCL4-induced po dosed C57BL/6J mouse assessed as inflammatory cell infiltration in heart at 15 to 30 mg/kg, po by H and E staining based analysis; assay type: organism-based; settings: in vivo, dose 15-30 mg/kg
[11] = Toxicity in CCL4-induced po dosed C57BL/6J mouse assessed as inflammatory cell infiltration in spleen at 15 to 30 mg/kg, po by H and E staining based analysis; assay type: organism-based; settings: in vivo, dose 15-30 mg/kg
[12] = Toxicity in CCL4-induced po dosed C57BL/6J mouse assessed as inflammatory cell infiltration in lung at 15 to 30 mg/kg, po by H and E staining based analysis; assay type: organism-based; settings: in vivo, dose 15-30 mg/kg
[13] = system: LX-2; test: […] of alpha-SMA mRNA expression in TGF-beta1-induced human LX2 cells at 20 uM pretreated with TGF-beta1 for 1 hr followed by compound addition and measured after 24 hrs by qRT-PCR analysis; assay type: functional, cell-based
[14] = system: LX-2; test: Downregulation of fibronectin mRNA expression in TGF-beta1-induced human LX2 cells at 20 uM pretreated with TGF-beta1 for 1 hr followed by compound addition and measured after 24 hrs by qRT-PCR analysis; assay type: functional, cell-based
[15] = system: LX-2; test: Downregulation of alpha-SMA mRNA expression in TGF-beta1-induced human LX2 cells at 20 uM pretreated with TGF-beta1 for 1 hr followed by compound addition and measured after 24 hrs by qRT-PCR analysis; assay type: functional, cell-based
[16] = system: LX-2; test: Effect on alpha-SMA protein level in TGF-beta1-induced human LX2 cells at 20 uM pretreated with TGF-beta1 for 1 hr followed by compound addition and measured after 24 hrs by Western blot analysis; assay type: functional, cell-based
[17] = system: LX-2; test: Effect on fibronectin protein level in TGF-beta1-induced human LX2 cells at 20 uM pretreated with TGF-beta1 for 1 hr followed by compound addition and measured after 24 hrs by Western blot analysis; assay type: functional, cell-based

| SMILES | inhibition at 20 µM [1] [%] | viability at 72 h, 20 µM [2] [%] | also measured |
| --- | --- | --- | --- |
| COc1ccc(CCC(=O)Nc2cccc(C(=O)NC3CCCC3)c2)cc1OC | 13.8 | 71.7 | – |
| O=C(/C=C/c1ccc2c(c1)OCCO2)Nc1ccc(C(=O)NC2CCCC2)cc1 | 18 | 69.3 | – |
| COc1ccc(/C=C/C(=O)Nc2ccc(C(=O)NC3CCCCC3)cc2)cc1OC | 14 | 81.3 | – |
| COc1ccc(/C=C/C(=O)Nc2cccc(C(=O)O)c2)cc1OC | 26 | 79.3 | – |
| COc1ccc(/C=C/C(=O)Nc2ccccc2C(=O)NC2CC2)cc1OC | 1.5 | 71.5 | – |
| CNC(=O)c1cccc(NC(=O)/C=C/c2ccc(OC)c(OC)c2)c1 | 28.5 | 79.7 | – |
| COc1cc(/C=C/C(=O)Nc2ccc(C(=O)NC3CCCC3)cc2)cc(OC)c1 | 36.7 | 69.7 | Activity [3]: Active; Activity [4]: Active; IC50 at 72 h [5]: 17.3 µM |
| COc1ccc(/C=C/C(=O)Nc2ccccc2C(=O)NC2CCCC2)cc1OC | 27 | 88 | – |
| COc1ccc(/C=C/C(=O)Nc2ccc(C(=O)NC3CCC3)cc2)cc1OC | 27 | 68.3 | – |
| COc1ccc(OC)c(/C=C/C(=O)Nc2ccc(C(=O)NC3CCCC3)cc2)c1 | 26.3 | 63 | – |
| COc1cccc(/C=C/C(=O)Nc2ccc(C(=O)NC3CCCC3)cc2)c1OC | 17.3 | 77 | – |
| COc1ccccc1/C=C/C(=O)Nc1cccc(C(=O)NC2CCCC2)c1 | 17.3 | 66 | – |
| COc1ccc(/C=C/C(=O)Nc2ccccc2C(=O)O)cc1OC [TRANILAST] | 17.5 | 80 | IC50 at 72 h [5]: 82.3 µM; Activity [6]: 5.09%; Activity [7]: 1.66%; Activity [8]: 1.92%; Activity [9]: 2.87%; Activity [10]: Non-Toxic; Activity [11]: Non-Toxic; Activity [12]: Non-Toxic |
| COc1ccc(/C=C/C(=O)Nc2cccc(C(=O)N3CCCCC3)c2)cc1OC | 17.7 | 68.8 | – |
| COc1ccc(/C=C/C(=O)Nc2ccc(C(=O)NC3CCCC3)cc2)cc1OC | 48.3 | 46 | Activity [3]: Active; Activity [4]: Active; IC50 at 72 h [5]: 13.3 µM |
| COc1ccc(/C=C/C(=O)Nc2ccc(C(=O)NC3CCCC3)cc2)cc1O | 29.5 | 66.3 | – |
| COc1ccc(/C=C/C(=O)Nc2cccc(C(=O)NC3CCC3)c2)cc1OC | 31.7 | 60 | – |
| Cc1cc(C)cc(/C=C/C(=O)Nc2ccc(C(=O)NC3CCCC3)cc2)c1 | 3 | 80.5 | – |
| COc1ccc(/C=C/C(=O)Nc2ccc(C(=O)O)nc2)cc1OC | 14 | 98 | – |
| COc1ccc(/C=C/C(=O)Nc2ccc(C(=O)NC3CCNC3)nc2)cc1OC (stereo not given) | 19.5 | 76.5 | – |

| SMILES | inhibition at 20 µM [1] [%] | viability at 72 h, 20 µM [2] [%] | also measured |
| --- | --- | --- | --- |
| CNC(=O)c1ccccc1NC(=O)/C=C/c1ccc(OC)c(OC)c1 | 13 | 67 | – |
| COc1ccc(/C=C/C(=O)Nc2ccc(C(=O)NC3CCCC3)cc2)cc1 | 32 | 50.3 | – |
| COc1cccc(/C=C/C(=O)Nc2ccc(C(=O)NC3CCCC3)cc2)c1 | 19 | 70.8 | – |
| COc1cccc(/C=C/C(=O)Nc2cccc(C(=O)NC3CCCC3)c2)c1 | 25.3 | 56 | – |
| COc1ccc(/C=C/C(=O)Nc2ccc(C(=O)N3CCCCC3)cc2)cc1OC | 29.5 | 74 | – |
| COc1ccc(/C=C/C(=O)Nc2cccc(C(=O)NC3CCCC3)c2)cc1OC | 53.8 | 44.3 | Activity [3]: Active; Activity [4]: Active; IC50 at 72 h [5]: 8.4 µM |
| COc1ccc(CCC(=O)Nc2ccc(C(=O)NC3CCCC3)cc2)cc1OC | 3 | 71.7 | – |
| COc1ccc(/C=C/C(=O)Nc2cccc(C(=O)NC3CC3)c2)cc1OC | 30 | 65.3 | – |
| COc1ccc(/C=C/C(=O)Nc2ccccc2C(=O)NC2CCCCC2)cc1OC | 20 | 45.3 | – |
| COc1ccc(/C=C/C(=O)Nc2ccc(C(=O)NC3CCCC3)nc2)cc1OC | 41 | 64.5 | Activity [13]: Active |
| COc1ccc(/C=C/C(=O)Nc2ccc(C(=O)NC3CC3)cc2)cc1OC | 24.5 | 74.3 | – |
| CNC(=O)c1ccc(NC(=O)/C=C/c2ccc(OC)c(OC)c2)cc1 | 24 | 79.5 | – |
| COc1ccc(/C=C/C(=O)Nc2ccc(C(=O)O)cc2)cc1OC | 31 | 81.5 | – |
| COc1ccccc1/C=C/C(=O)Nc1ccc(C(=O)NC2CCCC2)cc1 | 70.3 | 70.8 | Activity [14]: Active; Activity [15]: Active; Activity [16]: inactive; Activity [17]: inactive |
| COc1ccc(/C=C/C(=O)Nc2ccc(C(=O)NC3CCNC3)cc2)cc1OC (stereo not given) | 17 | 80.3 | – |
| COc1ccc(/C=C/C(=O)Nc2ccccc2C(=O)NC2CCC2)cc1OC | 19 | 71 | – |
| COc1ccc(/C=C/C(=O)Nc2ccccc2C(=O)N2CCCCC2)cc1OC | 13 | 88.7 | – |
| O=C(/C=C/c1ccc2c(c1)OCO2)Nc1ccc(C(=O)NC2CCCC2)cc1 | 22 | 78 | – |
| COc1ccc(/C=C/C(=O)Nc2cccc(C(=O)NC3CCCCC3)c2)cc1OC | 49.6 | 39.8 | – |
